Experiments:
[1] = tested on: 23TAG (DNA, G4) TAGGGTTAGGGTTAGGGTTAGGG; experiment: UV-Vis titration, Benesi-Hildebrand; conditions: K+ (20 mM potassium phosphate); pH 7, 25 °C; 5 μM porphyrin titrated with DNA
[2] = tested on: CMA (DNA, G4) TAGGGAGGGTAGGGAGGGT; experiment: UV-Vis titration, Benesi-Hildebrand; conditions: K+ (20 mM potassium phosphate); pH 7, 25 °C; 5 μM porphyrin titrated with DNA

C[n+]1ccc(-c2c3nc(c(-c4cc[n+](C)cc4)c4ccc([nH]4)c(-c4cc[n+](C)cc4)c4nc(c(-c5cc[n+](C)cc5)c5ccc2[nH]5)C=C4)C=C3)cc1
Kb [1]: (1.5±0.4)×10^6 M^-1 | Kb [2]: (1.5±0.6)×10^6 M^-1

Reference: publication PMC11632414 (2024)
